According to PubChem BioAssay AID2060505 (Molecular Pharmacology Branch, DTP, NCI, 2025):
One block for each molecule: values may come before it.

Tested on: 633275-114-R-J1-PDC complex spheroids, viability
Experiment: Anticancer human tumor 633275-114-R-J1-PDC patient-derived endometrial adenocarcinoma cell line growth inhibition [GQUAD]
Settings: for IC50: curve of first compound; for viability, T/C: stronger effect = lower value
How it was run: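 Tumor cells were grown as complex spheroids with HUVEC endothelial cells and mesenchymal stem cells as stroma. G-quadruplex stabilizers were combined with targeted agents over half-log dilutions from near the clinical Cmax, or from 10 microM.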

[1] = second compound 0.0316 µM, first compound 0.0316 µM
[2] = second compound 0.0316 µM, first compound 0.1 µM
[3] = second compound 0.0316 µM, first compound 0.316 µM
[4] = second compound 0.0316 µM, first compound 1 µM
[5] = second compound 0.0316 µM, first compound 3.16 µM
[6] = second compound 0.0316 µM, first compound 10 µM
[7] = second compound 0.1 µM, first compound 0.0316 µM
[8] = second compound 0.1 µM, first compound 0.1 µM
[9] = second compound 0.1 µM, first compound 0.316 µM
[10] = second compound 0.1 µM, first compound 1 µM
[11] = second compound 0.1 µM, first compound 3.16 µM
[12] = second compound 0.1 µM, first compound 10 µM
[13] = second compound 0.316 µM, first compound 0.0316 µM
[14] = second compound 0.316 µM, first compound 0.1 µM
[15] = second compound 0.316 µM, first compound 0.316 µM
[16] = second compound 0.316 µM, first compound 1 µM
[17] = second compound 0.316 µM, first compound 3.16 µM
[18] = second compound 0.316 µM, first compound 10 µM
[19] = second compound 1 µM, first compound 0.0316 µM
[20] = second compound 1 µM, first compound 0.1 µM
[21] = second compound 1 µM, first compound 0.316 µM
[22] = second compound 1 µM, first compound 1 µM
[23] = second compound 1 µM, first compound 3.16 µM
[24] = second compound 1 µM, first compound 10 µM
[25] = second compound 3.16 µM, first compound 0.0316 µM
[26] = second compound 3.16 µM, first compound 0.1 µM
[27] = second compound 3.16 µM, first compound 0.316 µM
[28] = second compound 3.16 µM, first compound 1 µM
[29] = second compound 3.16 µM, first compound 3.16 µM
[30] = second compound 3.16 µM, first compound 10 µM
[31] = second compound 10 µM, first compound 0.0316 µM
[32] = second compound 10 µM, first compound 0.1 µM
[33] = second compound 10 µM, first compound 0.316 µM
[34] = second compound 10 µM, first compound 1 µM
[35] = second compound 10 µM, first compound 3.16 µM
[36] = second compound 10 µM, first compound 10 µM
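Note: spheroids exposed to the agents for seven days.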
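Throughout, for viability, T/C: percent of DMSO vehicle control viability which is 100%.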

SMILES: C#Cc1c(F)ccc2cc(O)cc(-c3ncc4c(N5CC6CCC(C5)N6)nc(OCC56CCCN5CC(F)C6)nc4c3F)c12 (stereo not drawn) + Cc1[nH]c2ccc(F)cc2c1-c1nc2c3cccnc3c3ncccc3c2[nH]1
- IC50 (second compound 0.0316 µM): > 10000 nM
- IC50 (second compound 0.1 µM): > 10000 nM
- IC50 (second compound 0.316 µM): > 10000 nM
- IC50 (second compound 1 µM): > 10000 nM
- IC50 (second compound 3.16 µM): 4830 nM
- IC50 (second compound 10 µM): 4060 nM
- viability, T/C [1]: 103%
- viability, T/C [2]: 89.9%
- viability, T/C [3]: 93.8%
- viability, T/C [4]: 81.1%
- viability, T/C [5]: 75.7%
- viability, T/C [6]: 60.6%
- viability, T/C [7]: 89.7%
- viability, T/C [8]: 107%
- viability, T/C [9]: 83.7%
- viability, T/C [10]: 88.4%
- viability, T/C [11]: 69.8%
- viability, T/C [12]: 64%
- viability, T/C [13]: 89.3%
- viability, T/C [14]: 86.7%
- viability, T/C [15]: 82.7%
- viability, T/C [16]: 81.1%
- viability, T/C [17]: 77.5%
- viability, T/C [18]: 60.6%
- viability, T/C [19]: 78.8%
- viability, T/C [20]: 82%
- viability, T/C [21]: 82.5%
- viability, T/C [22]: 74.6%
- viability, T/C [23]: 71.5%
- viability, T/C [24]: 56.6%
- viability, T/C [25]: 63.5%
- viability, T/C [26]: 66.1%
- viability, T/C [27]: 65.7%
- viability, T/C [28]: 66.2%
- viability, T/C [29]: 52%
- viability, T/C [30]: 41.1%
- viability, T/C [31]: 58%
- viability, T/C [32]: 60.7%
- viability, T/C [33]: 60.7%
- viability, T/C [34]: 62.4%
- viability, T/C [35]: 52.8%
- viability, T/C [36]: 34.7%

- IC50 (second compound 0.0316 µM): 179 nM
- IC50 (second compound 0.1 µM): 60.3 nM
- IC50 (second compound 0.316 µM): < 31.6 nM
- IC50 (second compound 1 µM): < 31.6 nM
- IC50 (second compound 3.16 µM): < 31.6 nM
- IC50 (second compound 10 µM): < 31.6 nM
SMILES: COc1ccc([C@@H](O)c2cc(-c3ncnc4cc(N5CCOCC5)ccc34)c(F)cc2Cl)nn1 + Cc1cnc(CNC(=O)c2c(=O)c3ccc(N4CCCN(C)CC4)nc3n3c2sc2ccccc23)cn1
- viability, T/C [1]: 59.8%
- viability, T/C [2]: 60.3%
- viability, T/C [3]: 40.9%
- viability, T/C [4]: 29.2%
- viability, T/C [5]: 19.2%
- viability, T/C [6]: 12.2%
- viability, T/C [7]: 51.5%
- viability, T/C [8]: 50.5%
- viability, T/C [9]: 36.1%
- viability, T/C [10]: 25%
- viability, T/C [11]: 18.8%
- viability, T/C [12]: 11.2%
- viability, T/C [13]: 48.6%
- viability, T/C [14]: 45.7%
- viability, T/C [15]: 30.1%
- viability, T/C [16]: 24.9%
- viability, T/C [17]: 20.6%
- viability, T/C [18]: 11.9%
- viability, T/C [19]: 40.2%
- viability, T/C [20]: 37.9%
- viability, T/C [21]: 28.4%
- viability, T/C [22]: 24.6%
- viability, T/C [23]: 18.1%
- viability, T/C [24]: 11.1%
- viability, T/C [25]: 34%
- viability, T/C [26]: 29.4%
- viability, T/C [27]: 27.6%
- viability, T/C [28]: 21.8%
- viability, T/C [29]: 18.7%
- viability, T/C [30]: 11.5%
- viability, T/C [31]: 30.8%
- viability, T/C [32]: 27.5%
- viability, T/C [33]: 28.6%
- viability, T/C [34]: 19.9%
- viability, T/C [35]: 16%
- viability, T/C [36]: 3.93%

- IC50 (second compound 0.0316 µM): > 10000 nM
- IC50 (second compound 0.1 µM): 1120 nM
- IC50 (second compound 0.316 µM): < 31.6 nM
- IC50 (second compound 1 µM): < 31.6 nM
- IC50 (second compound 3.16 µM): < 31.6 nM
- IC50 (second compound 10 µM): < 31.6 nM
SMILES: O=c1[nH]cc(F)c(=O)[nH]1 + Cc1cnc(CNC(=O)c2c(=O)c3ccc(N4CCCN(C)CC4)nc3n3c2sc2ccccc23)cn1
- viability, T/C [1]: 67%
- viability, T/C [2]: 66.8%
- viability, T/C [3]: 62.7%
- viability, T/C [4]: 64.5%
- viability, T/C [5]: 58.8%
- viability, T/C [6]: 50.6%
- viability, T/C [7]: 60.6%
- viability, T/C [8]: 49.7%
- viability, T/C [9]: 55.8%
- viability, T/C [10]: 48.5%
- viability, T/C [11]: 51%
- viability, T/C [12]: 43.7%
- viability, T/C [13]: 45.1%
- viability, T/C [14]: 49.6%
- viability, T/C [15]: 45.6%
- viability, T/C [16]: 46.8%
- viability, T/C [17]: 46.1%
- viability, T/C [18]: 34.4%
- viability, T/C [19]: 40.9%
- viability, T/C [20]: 45.9%
- viability, T/C [21]: 39.4%
- viability, T/C [22]: 39.2%
- viability, T/C [23]: 41.2%
- viability, T/C [24]: 31.5%
- viability, T/C [25]: 40.7%
- viability, T/C [26]: 38%
- viability, T/C [27]: 37%
- viability, T/C [28]: 32.6%
- viability, T/C [29]: 36.7%
- viability, T/C [30]: 34.9%
- viability, T/C [31]: 35.8%
- viability, T/C [32]: 33.6%
- viability, T/C [33]: 30.6%
- viability, T/C [34]: 38.4%
- viability, T/C [35]: 30.9%
- viability, T/C [36]: 25%

SMILES: COc1ccc([C@@H](O)c2cc(-c3ncnc4cc(N5CCOCC5)ccc34)c(F)cc2Cl)nn1 + Cc1[nH]c2ccc(F)cc2c1-c1nc2c3cccnc3c3ncccc3c2[nH]1
- IC50 (second compound 0.0316 µM): 4910 nM
- IC50 (second compound 0.1 µM): 3710 nM
- IC50 (second compound 0.316 µM): 2910 nM
- IC50 (second compound 1 µM): 3150 nM
- IC50 (second compound 3.16 µM): 1880 nM
- IC50 (second compound 10 µM): 1410 nM
- viability, T/C [1]: 107%
- viability, T/C [2]: 91%
- viability, T/C [3]: 82.9%
- viability, T/C [4]: 72.5%
- viability, T/C [5]: 58%
- viability, T/C [6]: 38.5%
- viability, T/C [7]: 96.8%
- viability, T/C [8]: 99.8%
- viability, T/C [9]: 87.5%
- viability, T/C [10]: 66.5%
- viability, T/C [11]: 54.8%
- viability, T/C [12]: 39.7%
- viability, T/C [13]: 89.5%
- viability, T/C [14]: 96.8%
- viability, T/C [15]: 88.9%
- viability, T/C [16]: 69.2%
- viability, T/C [17]: 50.2%
- viability, T/C [18]: 35.1%
- viability, T/C [19]: 83.8%
- viability, T/C [20]: 90.5%
- viability, T/C [21]: 85.4%
- viability, T/C [22]: 69.9%
- viability, T/C [23]: 51.1%
- viability, T/C [24]: 33.9%
- viability, T/C [25]: 71.3%
- viability, T/C [26]: 68.3%
- viability, T/C [27]: 63.2%
- viability, T/C [28]: 56.8%
- viability, T/C [29]: 44.7%
- viability, T/C [30]: 29.7%
- viability, T/C [31]: 70.3%
- viability, T/C [32]: 69.3%
- viability, T/C [33]: 70.6%
- viability, T/C [34]: 51.3%
- viability, T/C [35]: 42.3%
- viability, T/C [36]: 31.6%
